Results: patent US7138361B2, “Herbicidal heterocycles” (E. I. du Pont de Nemours and Company, priority 2000, dated 2006)

Legend:
Assay in all cases: Test C preemergence
Type in all cases: in vivo
Nightshade [1] = test system: Nightshade
Sunflower = test system: Sunflower
[2] = test system: Surinam grass (Brachiaria decumbens)
Outline: (§1)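 Pre- and postemergence treatments used a non-phytotoxic solvent/surfactant formulation; post-treated plants measured 2 to 18 cm. Greenhouse hold 12–14 d; % control estimated visually relative to controls.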

[3] = test system: bermudagrass (Cynodon dactylon)
Outline: as §1

[4] = test system: cocklebur (Xanthium strumarium)
Outline: as §1

[5] = test system: common ragweed (Ambrosia elatior)
Outline: as §1

corn (Zea mays) = test system: corn (Zea mays)
Outline: as §1

[6] = test system: crabgrass (Digitaria sanguinalis)
Outline: as §1

[7] = test system: giant foxtail (Setaria faberii)
Outline: as §1

[8] = test system: goosegrass (Eleusine indica)
Outline: as §1

[9] = test system: johnsongrass (Sorghum halepense)
Outline: as §1

kochia (Kochia scoparia) = test system: kochia (Kochia scoparia)
Outline: as §1

[10] = test system: lambsquarters (Chenopodium album)
Outline: as §1

[11] = test system: morningglory (Ipomoea hederacea)
Outline: as §1

[12] = test system: pigweed (Amaranthus retroflexus)
Outline: as §1

soybean (Glycine max) = test system: soybean (Glycine max)
Outline: as §1

[13] = test system: velvetleaf (Abutilon theophrasti)
Outline: as §1

[14] = test system: woolly cupgrass (Eriochloa villosa)
Outline: as §1

[15] = test system: yellow nutsedge (Cyperus esculentus)
Outline: as §1

Nightshade [16] = conditions: Rate 250 g/ha, visual evaluation after 12 to 14 days
[17] = Rate 62 g/ha, scale 0 to 100, 0 no effect, 100 complete control
[18] = Preemergence, Rate 500 g/ha, scale 0 to 100
[19] = preemergence, Rate 250 g/ha, visual evaluation after 12 to 14 days
[20] = preemergence, Rate 125 g/ha, scale 0 to 100, 0 no effect, 100 complete control

O=C1C(n2ccc(C3CCC3)n2)OCN1c1cccc(C(F)(F)F)c1 (stereo not drawn) [Compound 39]
70: Plant response rating, Corn (corn (Zea mays); [18]) | Plant response rating (0 to 100), Johnsongrass [9, 19] | Plant response rating (0 to 100), Kochia (kochia (Kochia scoparia); [19])
50: Plant response rating, Kochia (kochia (Kochia scoparia); [20])
90: Plant response rating, Bermudagrass [3, 17] | Plant response rating, Bermudagrass [3, 20] | Plant response rating, Crabgrass [6, 17] | Plant response rating, Goosegrass [8, 20] | Plant response rating, Johnsongrass [9, 18] | Plant response rating, Kochia (kochia (Kochia scoparia); [18]) | Plant response rating (0 to 100), Cupgrass, Woolly [14, 19]
20: Plant response rating, Ragweed, Common [5, 18] | Plant response rating, Cupgrass, Woolly [14, 20]
100: Plant response rating, Bermudagrass [3, 18] | Plant response rating (0 to 100 where 0 is no effect and 100 is complete control), Bermudagrass [3, 19] | Plant response rating, Crabgrass [6, 18] | Plant response rating (0 to 100), Crabgrass [6, 19] | Plant response rating, Crabgrass [6, 20] | Plant response rating, Foxtail, Giant [7, 18] | Plant response rating, Goosegrass [8, 18] | Plant response rating (0 to 100), Goosegrass [8, 19] | Plant response rating, Lambsquarters [10, 18] | Plant response rating, Lambsquarters [10, 17] | Plant response rating (0 to 100), Lambsquarters [10, 19] | Plant response rating, Lambsquarters [10, 20] | Plant response rating, Pigweed [12, 18] | Plant response rating, Cupgrass, Woolly [14, 18]
80: Plant response rating, Surinam grass [2, 18] | Plant response rating, Goosegrass [8, 17]
40: Plant response rating, Nutsedge [15, 18]
0: Plant response rating, Nightshade (Nightshade [1]; [17]) | Plant response rating, Nightshade (Nightshade [1]; Rate 125 g/ha, scale 0 to 100, 0 no effect, 100 complete control) | Plant response rating, Nightshade (Nightshade [1]; Rate 500 g/ha, scale 0 to 100) | Plant response rating, Sunflower (Sunflower; [17]) | Plant response rating, Sunflower (Sunflower; Rate 500 g/ha, scale 0 to 100) | Plant response rating, Surinam grass [2, 17] | Plant response rating (0 to 100), Surinam grass [2, 19] | Plant response rating, Surinam grass [2, 20] | Plant response rating, Cocklebur [4, 18] | Plant response rating, Cocklebur [4, 17] | Plant response rating, Ragweed, Common [5, 17] | Plant response rating (0 to 100), Ragweed, Common [5, 19] | Plant response rating, Ragweed, Common [5, 20] | Plant response rating, Corn (corn (Zea mays); [17]) | Plant response rating (0 to 100), Corn (corn (Zea mays); [19]) | Plant response rating, Corn (corn (Zea mays); [20]) | Plant response rating, Foxtail, Giant [7, 17] | Plant response rating (0 to 100), Foxtail, Giant [7, 19] | Plant response rating, Foxtail, Giant [7, 20] | Plant response rating, Johnsongrass [9, 17] | Plant response rating, Johnsongrass [9, 20] | Plant response rating, Kochia (kochia (Kochia scoparia); [17]) | Plant response rating, Morningglory [11, 18] | Plant response rating, Morningglory [11, 17] | Plant response rating (0 to 100), Morningglory [11, 19] | Plant response rating, Morningglory [11, 20] | Plant response rating, Pigweed [12, 17] | Plant response rating (0 to 100), Pigweed [12, 19] | Plant response rating, Pigweed [12, 20] | Plant response rating, Soybean (soybean (Glycine max); [18]) | Plant response rating, Soybean (soybean (Glycine max); [17]) | Plant response rating (0 to 100), Soybean (soybean (Glycine max); [19]) | Plant response rating, Soybean (soybean (Glycine max); [20]) | Plant response rating, Velvetleaf [13, 18] | Plant response rating, Velvetleaf [13, 17] | Plant response rating (0 to 100), Velvetleaf [13, 19] | Plant response rating, Velvetleaf [13, 20] | Plant response rating, Cupgrass, Woolly [14, 17] | Plant response rating, Nutsedge [15, 17] | Plant response rating (0 to 100), Nutsedge [15, 19] | Plant response rating, Nutsedge [15, 20] | Plant response rating (0 to 100), Nightshade (Nightshade [16])
